In PubChem BioAssay AID1259411 (Chemical Carcinogenesis Research Information System (CCRIS), 2018):
The source made the active and inactive calls. How the calls were made is not given here.

System: rodent carcinogenicity bioassays, tumor incidence
Assay: CCRIS carcinogenicity studies
Excerpt: The CCRIS database contains chemical records with carcinogenicity, mutagenicity, tumor promotion, and tumor inhibition test results. It was developed by the National Cancer Institute (NCI). Data are derived from studies cited in primary journals, current awareness tools, NCI reports, and other sources. Test results have been reviewed by experts in carcinogenesis and mutagenesis.
CCRIS provides historical information from the years 1985 - 2011. It is no longer updated.
This is an archive assay for CCRIS carcinogenicity studies.

C/C=C/c1ccc(OC)cc1
carcinogen call (Species: MOUSE, Strain/Sex: B6C3F1/MALE, Route: INTRAPERITONEAL, Dose: 0, 0.5 UMOL/G BW ONCE (STUDY DURATION: 10-11 MONTHS)): inactive; negative | carcinogen call (Species: MOUSE, Strain/Sex: CD-1/FEMALE, Route: DERMAL, Dose: 0, 5 UMOL 1X/WK FOR 3 WK BEGINNING 24 HR POST FIRST TPA DOSE (2.5 UG IN 0.1 ML ACETONE), FOLLOWED BY 2.5 UG TPA IN 0.1 M, Tumor Site: Type of Lesion: SKIN: PAPILLOMA): inactive; negative | carcinogen call (Species: RAT, Strain/Sex: SPRAGUE-DAWLEY/FEMALE, Route: ORAL, Dose: 0, 0.25, 0.5, 1% IN DIET FOR 117 WK (STUDY DURATION: 121 WK), Dose: 0, 0.25, 0.5, 1% IN DIET FOR 117 WK (STUDY DURATION: 121 WK), Tumor Site: Type of Lesion: LIVER: HEPTOCELLULAR CARCINOMA): active; positive | carcinogen call (Species: RAT, Strain/Sex: SPRAGUE-DAWLEY/MALE, Route: ORAL, Dose: 0, 0.25, 0.5, 1.0% IN DIET FOR 117 WK (STUDY DURATION: 121 WK), Dose: 0, 0.25, 0.5, 1.0% IN DIET FOR 117 WK (STUDY DURATION: 121 WK)): inactive; negative

CCOP(=O)(SC(C)CC)N1CCSC1=O (centres undefined)
carcinogen call (Species: Mouse, Strain/Sex: CD-1/Female (60/Group), Route: Oral, Dose: 0, 1.11, 3.20, 10.4, 39.2 mg/kg/day of 93.3% fosthiazate in diet for 104 wk, study duration 102 wk, Dose: 0, 1.11, 3.20, 10.4, 39.2 mg/kg/day of 93.3% fosthiazate in diet for 104 wk, study duration 102 wk): inactive; negative | carcinogen call (Species: Mouse, Strain/Sex: CD-1/Male (60/Group), Route: Oral, Dose: 0, 1.02, 3.10, 10.3, 30.5 mg/kg/day of 93.3% fosthiazate in diet for 104 wk, study duration 102 wk, Dose: 0, 1.02, 3.10, 10.3, 30.5 mg/kg/day of 93.3% fosthiazate in diet for 104 wk, study duration 102 wk): inactive; negative | carcinogen call (Species: Rat, Strain/Sex: CD/Female (50/Group), Route: Oral, Dose: 0, 0.051, 0.50, 2.45, 11.69 mg/kg/day of 93.3% fosthiazate in diet for 104 wk, study duration 104 wk, Dose: 0, 0.051, 0.50, 2.45, 11.69 mg/kg/day of 93.3% fosthiazate in diet for 104 wk, study duration 104 wk): inactive; negative | carcinogen call (Species: Rat, Strain/Sex: CD/Male (50/Group), Route: Oral, Dose: 0, 0.039, 0.38, 1.94, 8.34 mg/kg/day of 93.3% fosthiazate in diet for 104 wk, study duration 104 wk, Dose: 0, 0.039, 0.38, 1.94, 8.34 mg/kg/day of 93.3% fosthiazate in diet for 104 wk, study duration 104 wk): inactive; negative

O=[N+]([O-])c1ccc(Cl)cc1
carcinogen call (Species: MOUSE, Strain/Sex: CD-1/MALE,FEMALE, Route: ORAL, Tumor Site: Type of Lesion: BLOOD VESSELS): active; positive

CCC[CH2][Sn]([CH2]CCC)([O]C(C)=O)[O]C(C)=O
carcinogen call (Species: MOUSE, Strain/Sex: B6C3F1/FEMALE, Route: ORAL, Dose: 0, 76, 152 PPM IN DIET, TWA, Dose: 0, 76, 152 PPM IN DIET, TWA): inactive; negative | carcinogen call (Species: MOUSE, Strain/Sex: B6C3F1/MALE, Route: ORAL, Dose: 0, 76, 152 PPM IN DIET, TWA, Dose: 0, 76, 152 PPM IN DIET, TWA): inactive; negative | carcinogen call (Species: RAT, Strain/Sex: F344/MALE, Route: ORAL, Dose: 0, 66.5, 133 PPM IN DIET, TWA, Dose: 0, 66.5, 133 PPM IN DIET, TWA): inactive; negative

NC(=O)Cc1c([O-])on[n+]1Cc1ccccc1
carcinogen call (Species: MOUSE, Strain/Sex: DDD/FEMALE, Route: ORAL, Dose: 0, 0.002, 0.01, 0.02% IN DRINKING WATER FOR 12 MO (STUDY DURATION: 12 MO), Dose: 0, 0.002, 0.01, 0.02% IN DRINKING WATER FOR 12 MO (STUDY DURATION: 12 MO), Tumor Site: Type of Lesion: LIVER: HEPATOCELLULAR CARCINOMA): active; positive | carcinogen call (Species: MOUSE, Strain/Sex: DDD/MALE, Route: ORAL, Dose: 0, 0.02% IN DRINKING WATER FOR 12 MO (STUDY DURATION: 12 MO)): inactive; negative | carcinogen call (Species: RAT, Strain/Sex: DONRYU/FEMALE, Route: ORAL, Dose: 0, 60, 200, 400 PPM IN DRINKING WATER FOR 41 WK (STUDY DURATION: 104 WK), Dose: 0, 60, 200, 400 PPM IN DRINKING WATER FOR 41 WK (STUDY DURATION: 104 WK), Tumor Site: Type of Lesion: LIVER: TUMOR): active; positive | carcinogen call (Species: RAT, Strain/Sex: DONRYU/MALE, Route: ORAL, Dose: 0, 20 PPM IN DIET FOR 104 WK (STUDY DURATION: 104 WK)): inactive; negative | carcinogen call (Species: RAT, Strain/Sex: DONRYU/MALE, Route: ORAL, Dose: 0, 60, 200 PPM IN DIET FOR 15 WK (STUDY DURATION: 104 WK), Dose: 0, 60, 200 PPM IN DIET FOR 15 WK (STUDY DURATION: 104 WK), Tumor Site: Type of Lesion: LIVER: TUMOR): active; positive | carcinogen call (Species: RAT, Strain/Sex: DONRYU/MALE, Route: ORAL, Dose: 0, 60 PPM IN DRINKING WATER FOR 41 WK (STUDY DURATION: 104 WK), Tumor Site: Type of Lesion: LIVER: TUMOR): active; positive

C=Cc1ccc(C)cc1
carcinogen call (Species: MOUSE, Strain/Sex: SWISS/FEMALE, Route: INTRAGASTRIC, Dose: 0, 10, 50, 250 MG/KG IN OLIVE OIL 1/D, 5 D/WK FOR 78 WK (STUDY DURATION: 83 WK), Dose: 0, 10, 50, 250 MG/KG IN OLIVE OIL 1/D, 5 D/WK FOR 78 WK (STUDY DURATION: 83 WK)): inactive; negative | carcinogen call (Species: MOUSE, Strain/Sex: SWISS/MALE, Route: INTRAGASTRIC, Dose: 0, 10, 50, 250 MG/KG IN OLIVE OIL 1/D, 5 D/WK FOR 78 WK (STUDY DURATION: 83 WK), Dose: 0, 10, 50, 250 MG/KG IN OLIVE OIL 1/D, 5 D/WK FOR 78 WK (STUDY DURATION: 83 WK)): inactive; negative | carcinogen call (Species: RAT, Strain/Sex: SPRAGUE-DAWLEY/FEMALE, Route: INTRAGASTRIC, Dose: 0, 10, 50, 250, 500 MG/KG IN OLIVE OIL 1/D, 5 D/WK FOR 104 WK (STUDY DURATION: 123 WK), Dose: 0, 10, 50, 250, 500 MG/KG IN OLIVE OIL 1/D, 5 D/WK FOR 104 WK (STUDY DURATION: 123 WK)): inactive; negative | carcinogen call (Species: RAT, Strain/Sex: SPRAGUE-DAWLEY/MALE, Route: INTRAGASTRIC, Dose: 0, 10, 50, 250, 500 MG/KG IN OLIVE OIL 1/D, 5 D/WK FOR 104 WK (STUDY DURATION: 123 WK), Dose: 0, 10, 50, 250, 500 MG/KG IN OLIVE OIL 1/D, 5 D/WK FOR 104 WK (STUDY DURATION: 123 WK)): inactive; negative

O=CNNc1nc(-c2ccc([N+](=O)[O-])o2)cs1
carcinogen call (Species: HAMSTER, Route: ORAL, Tumor Site: Type of Lesion: FORESTOMACH, URINARY BLADDER): active; positive | carcinogen call (Species: MOUSE, Route: ORAL, Tumor Site: Type of Lesion: FORESTOMACH, HEMATOPOIETIC SYSTEM (LEUKEMIA), LUNG, STOMACH, Tumor Site: Type of Lesion: FORESTOMACH, HEMATOPOIETIC SYSTEM (LEUKEMIA), LUNG, STOMACH): active; positive | carcinogen call (Species: RAT, Route: ORAL, Tumor Site: Type of Lesion: HEMATOPOIETIC SYSTEM (LEUKEMIA), KIDNEY, LIVER, MAMMARY GLAND, Tumor Site: Type of Lesion: HEMATOPOIETIC SYSTEM (LEUKEMIA), KIDNEY, LIVER, MAMMARY GLAND): active; positive

ClCOCc1ccc(COCCl)cc1
carcinogen call (Species: MOUSE, Strain/Sex: ICR/HA SWISS/FEMALE, Route: DERMAL, Dose: 0, 0.3 MG IN 0.1 ML CYCLOHEXANE 3/WK FOR 502 D (STUDY DURATION: 570 D), Tumor Site: Type of Lesion: SKIN: PAPILLOMA, SKIN: CARCINOMA): active; positive | carcinogen call (Species: MOUSE, Strain/Sex: ICR/HA SWISS/FEMALE, Route: SUBCUTANEOUS, Dose: 0, 0.3 MG IN 0.05 ML TRICAPRYLIN 1/WK FOR 569 D (STUDY DURATION: 570 D), Tumor Site: Type of Lesion: INJECTION SITE: SARCOMA): active; positive

N#Cc1c(Cl)cccc1Cl
carcinogen call (Species: MICE, Strain/Sex: SWISS/MALE, Route: INTRAPERITONEAL, Dose: 2 PPM (0.0005MG) 1/3 D FOR 13 TIMES (STUDY DURATION: 375 D), Tumor Site: Type of Lesion: LYMPHATIC SYSTEM: HISTIOCYTIC LYMPHOMA, PLASMA CELL LYMPHOMA, LIVER: HEPATOCELLULAR CARCINOMA): active; positive | carcinogen call (Species: MICE, Strain/Sex: SWISS/MALE, Route: SUBCUTANEOUS, Dose: 2 PPM (0.0005MG) 1/3 D FOR 13 TIMES (STUDY DURATION: 375 D), Tumor Site: Type of Lesion: LYMPHATIC SYSTEM: PLASMA CELL LYMPHOMA, LUNG: CARCINOMA, BODY CAVITY: MESOTHELIOMA, LIVER: HEPATOCELLULAR CARCINOMA, Tumor Site: Type of Lesion: LYMPHATIC SYSTEM: PLASMA CELL LYMPHOMA, LUNG: CARCINOMA, BODY CAVITY: MESOTHELIOMA, LIVER: HEPATOCELLULAR CARCINOMA): active; positive
